Patent US20240182431A1, “NEW CONTRAST AGENT FOR USE IN MAGNETIC RESONANCE IMAGING” (Bayer Aktiengesellschaft, priority 2021, published 2024)

Assay: Partition coefficient (logP butanol/buffer)
Type: physicochemical
[1] = 1-butanol / 50 mM Tris-HCl, pH 7.4, room temperature

Structure (SMILES)	Log P (butanol/buffer) [1]	Log P (butanol/buffer) (pH 7.4)
CCOCCOCCOc1ccc(CC(C(=O)O)N2CCN(CC(=O)[O-])CCN(C(C)C(=O)[O-])CCN(CC(=O)[O-])CC2)cc1.[Gd+3] (single isomer, unassigned) [Example 5, gadolinium 2-[7-(1-carboxy-2-{4-[2-(2-ethoxyethoxy)ethoxy]phenyl}ethyl)-4,10-bis(carboxylatomethyl)-1,4,7,10-tetraazacyclododecan-1-yl]propanoate]	−1.52	–
CCOCCOCCOc1ccc(CCC[C@@H](C(=O)O)N2CCN(C(CO)C(=O)[O-])CCN(C(CO)C(=O)[O-])CCN(C(CO)C(=O)[O-])CC2)cc1.[Gd+3] (mixture of isomers) [Example 21, gadolinium-2,2′,2″-{10-[(1S)-1-carboxy-4-{4-[2-(2-ethoxyethoxy)ethoxy]phenyl}butyl]-1,4,7,10-tetraazacyclododecane-1,4,7-triyl}tris(3-hydroxypropanoate)]	−1.03	–
CCOCCOCCOc1ccc(C[C@@H](C(=O)O)N2CCN(CC(=O)[O-])CCN(CC(=O)[O-])CCN(CC(=O)[O-])CC2)cc1.[Gd+3] [Example 3, gadolinium 2,2′,2″-{10-[(1S)-1-carboxy-2-{4-[2-(2-ethoxyethoxy)ethoxy]phenyl}ethyl]-1,4,7,10-tetraazacyclododecane-1,4,7-triyl}triacetate]	−1.61	–
CCCCOc1ccc(CCCC[C@@H](C(=O)O)N2CCN([C@@H](CO)C(=O)[O-])CCN([C@@H](CO)C(=O)[O-])CCN([C@@H](CO)C(=O)[O-])CC2)cc1.[Gd+3] [Example 9, gadolinium (2S,2′S,2″S)-2,2′,2″-{10-[(1S)-5-(4-butoxyphenyl)-1-carboxypentyl]-1,4,7,10-tetraazacyclododecane-1,4,7-triyl}tris(3-hydroxypropanoate)]	0.26	–
CCOCCOCCOCCOc1ccc(C[C@@H](C(=O)O)N2CCN(CC(=O)[O-])CCN(CC(=O)[O-])CCN(CC(=O)[O-])CC2)c(OCCOCCOCCOCC)c1.[Gd+3] [Example 40, gadolinium 2,2′,2″-{10-[(1S)-2-(2,4-bis{2-[2-(2-ethoxyethoxy)ethoxy]ethoxy}phenyl)-1-carboxyethyl]-1,4,7,10-tetraazacyclododecane-1,4,7-triyl}triacetate]	−1.43	–
CCCCOc1cccc(CCC[C@@H](C(=O)O)N2CCN([C@@H](CO)C(=O)[O-])CCN([C@@H](CO)C(=O)[O-])CCN([C@@H](CO)C(=O)[O-])CC2)c1.[Gd+3] [Example 34, gadolinium (2S,2′S,2″S)-2,2′,2″-{10-[(1S)-4-(3-butoxyphenyl)-1-carboxybutyl]-1,4,7,10-tetraazacyclododecane-1,4,7-triyl}tris(3-hydroxypropanoate)]	0.12	–
CCOCCOCCOCCOc1ccc(CC(C(=O)O)N2CCN(CC(=O)[O-])CCN(CC(=O)[O-])CCN(CC(=O)[O-])CC2)cc1.[Gd+3] (stereo not shown) [Example 10, gadolinium 2,2′,2″-{10-[1-carboxy-2-(4-{2-[2-(2-ethoxyethoxy)ethoxy]ethoxy}phenyl)ethyl]-1,4,7,10-tetraazacyclododecane-1,4,7-triyl}triacetate]	−1.70	–
CCOCCOCCOCCOc1ccc(CC(C(=O)O)N2CCN(CC(=O)[O-])CCN(C(COC)C(=O)[O-])CCN(CC(=O)[O-])CC2)cc1.[Gd+3] (stereo not shown) [Example 13, gadolinium 2-{7-[1-carboxy-2-(4-{2-[2-(2-ethoxyethoxy)ethoxy]ethoxy}phenyl)ethyl]-4,10-bis(carboxylatomethyl)-1,4,7,10-tetraazacyclododecan-1-yl}-3-methoxypropanoate]	−1.53	–

Next, values leading:

Log P (butanol/buffer) [1]	Log P (butanol/buffer) (pH 7.4)	Structure (SMILES)
−0.53	–	CCCC(C(=O)[O-])N1CCN(CC(=O)[O-])CCN(C(Cc2ccc(OCC)cc2)C(=O)O)CCN(CC(=O)[O-])CC1.[Gd+3] (stereo not shown) [Example 29, gadolinium 2-{7-[1-carboxy-2-(4-ethoxyphenyl)ethyl]-4,10-bis(carboxylatomethyl)-1,4,7,10-tetraazacyclododecan-1-yl}pentanoate]
−1.02	–	CCOCCOCCOc1ccc(CCC[C@@H](C(=O)O)N2CCN([C@@H](CO)C(=O)[O-])CCN([C@H](CO)C(=O)[O-])CCN([C@@H](CO)C(=O)[O-])CC2)cc1.[Gd+3] [Example 35, gadolinium (2S,2′S)-2,2′-{4-[(1S)-1-carboxy-4-{4-[2-(2-ethoxyethoxy)ethoxy]phenyl}butyl]-10-[(1R)-1-carboxylato-2-hydroxyethyl]-1,4,7,10-tetraazacyclododecane-1,7-diyl}bis(3-hydroxypropanoate)]
−1.60	–	CCOCCOCCOCCOc1ccc(CC(C(=O)O)N2CCN(CC(=O)[O-])CCN(C(CO)C(=O)[O-])CCN(CC(=O)[O-])CC2)cc1.[Gd+3] (stereo not shown) [Example 42, gadolinium-2-{7-[1-carboxy-2-(4-{2-[2-(2-ethoxyethoxy)ethoxy]ethoxy}phenyl)ethyl]-4,10-bis(carboxylatomethyl)-1,4,7,10-tetraazacyclododecan-1-yl}-3-hydroxypropanoate]
–	−1.08	CCOCCOCCOc1ccc(CCC[C@@H](C(=O)O)N2CCN(C(CCO)C(=O)[O-])CCN(C(CCO)C(=O)[O-])CCN(C(CCO)C(=O)[O-])CC2)cc1.[Gd+3] (mixture of isomers) [Example 36, gadolinium-2,2′-{4-[(1S)-1-carboxy-4-{4-[2-(2-ethoxyethoxy)ethoxy]phenyl}butyl]-10-[1-carboxylato-3-hydroxypropyl]-1,4,7,10-tetraazacyclododecane-1,7-diyl}bis(4-hydroxybutanoate)]
−1.32	–	CCOCCOCCOc1cc(CC(C(=O)O)N2CCN(CC(=O)[O-])CCN(CC(=O)[O-])CCN(CC(=O)[O-])CC2)cc(OCCOCCOCC)c1.[Gd+3] (stereo not shown) [Example 39, gadolinium 2,2′,2″-{10-[2-{3,5-bis[2-(2-ethoxyethoxy)ethoxy]phenyl}-1-carboxyethyl]-1,4,7,10-tetraazacyclododecane-1,4,7-triyl}triacetate]
−0.55	–	O=C([O-])CN1CCN(C(Cc2ccc(OCC(F)(F)C(F)F)cc2)C(=O)O)CCN(CC(=O)[O-])CCN([C@@H](CO)C(=O)[O-])CC1.[Gd+3] (mixture of isomers) [Example 33, gadolinium (2S)-2-[4,10-bis(carboxylatomethyl)-7-{1-carboxy-2-[4-(2,2,3,3-tetrafluoropropoxy)phenyl]ethyl}-1,4,7,10-tetraazacyclododecan-1-yl]-3-hydroxypropanoate]
−1.41	–	CCOCCOc1ccc(CC(C(=O)O)N2CCN(CC(=O)[O-])CCN(C(COC)C(=O)[O-])CCN(CC(=O)[O-])CC2)cc1.[Gd+3] (stereo not shown) [Example 38, gadolinium 2-[7-{1-carboxy-2-[4-(2-ethoxyethoxy)phenyl]ethyl}-4,10-bis(carboxylatomethyl)-1,4,7,10-tetraazacyclododecan-1-yl]-3-methoxypropanoate]
−0.60	–	CCCC(C(=O)[O-])N1CCN(CC(=O)[O-])CCN(C(Cc2ccc(OCC)cc2)C(=O)O)CCN(CC(=O)[O-])CC1.[Gd+3] (stereo not shown) [Example 30, gadolinium 2-{7-[1-carboxy-2-(4-ethoxyphenyl)ethyl]-4,10-bis(carboxylatomethyl)-1,4,7,10-tetraazacyclododecan-1-yl}pentanoate]
